Source: US20260116868A1 (Arcus Biosciences, Inc., priority 2023, published 2026)
Like-named read-outs stand apart in the source and are kept apart here.

Key:
[1] = system: Jurkat cells; assay: IL-2 secretion assay in Jurkat cells activated with CD3/CD28 T Cell Activator; assay type: cell-based; conditions: Homo sapiens, 24 h, read-out: IL-2 Secretion (EC50)
Protocol: Certain compounds were also evaluated in an IL-2 secretion assay. On the day of the assay, a 16 point, 1:2 master serial dilution of each compound was prepared in Opti-MEM to span a final concentration range of 10 μM to 300 pM. Assays were set up in CORNING® tissue culture-treated 384-well microplates containing 60 nL of each dilution. Jurkat cells grown in RPMI-1640 supplemented with 10% FBS, 1% Glutamax, and 1% Pen/Strep were collected, resuspended in Opti-MEM. 50,000 cells/well and added to the compound plates. After a short spin (1200 rpm for 1 min), the plates were incubated at 37° C. for 1 hour. The cells were activated by adding 15 μL of IMMUNOCULT™ Human CD3/CD28 T Cell Activator (STEMCELL Technologies) diluted in Opti-MEM. After 24 h of incubation at 37° C., aliquots of culture supernatants were transferred to OptiPlate-384 (PerkinElmer) microplates. The level of IL-2 secretion in the supernatants was then determined using the IL-2 (human) AlphaLISA Detection Kit (PerkinElmer) according to the manufacturer's recommendations. The AlphaLISA signal was measured using an EnVision plate reader (PerkinElmer). EC50 values were determined by fitting the data to a standard 4-parameter logistic equation. See Table 7 for data for select compounds (IL-2 Secretion (EC50)).

[2] = molecular target: T1, Cbl-b (Homo sapiens, UniProt Q13191); assay: Cbl-b probe displacement HTRF binding assay; conditions: 0.4 nM Cbl-b, 150 nM BODIPY probe
T1 construct: biotin (biotinylated protein)
T1 sequence (Q13191 whole entry, species assumed): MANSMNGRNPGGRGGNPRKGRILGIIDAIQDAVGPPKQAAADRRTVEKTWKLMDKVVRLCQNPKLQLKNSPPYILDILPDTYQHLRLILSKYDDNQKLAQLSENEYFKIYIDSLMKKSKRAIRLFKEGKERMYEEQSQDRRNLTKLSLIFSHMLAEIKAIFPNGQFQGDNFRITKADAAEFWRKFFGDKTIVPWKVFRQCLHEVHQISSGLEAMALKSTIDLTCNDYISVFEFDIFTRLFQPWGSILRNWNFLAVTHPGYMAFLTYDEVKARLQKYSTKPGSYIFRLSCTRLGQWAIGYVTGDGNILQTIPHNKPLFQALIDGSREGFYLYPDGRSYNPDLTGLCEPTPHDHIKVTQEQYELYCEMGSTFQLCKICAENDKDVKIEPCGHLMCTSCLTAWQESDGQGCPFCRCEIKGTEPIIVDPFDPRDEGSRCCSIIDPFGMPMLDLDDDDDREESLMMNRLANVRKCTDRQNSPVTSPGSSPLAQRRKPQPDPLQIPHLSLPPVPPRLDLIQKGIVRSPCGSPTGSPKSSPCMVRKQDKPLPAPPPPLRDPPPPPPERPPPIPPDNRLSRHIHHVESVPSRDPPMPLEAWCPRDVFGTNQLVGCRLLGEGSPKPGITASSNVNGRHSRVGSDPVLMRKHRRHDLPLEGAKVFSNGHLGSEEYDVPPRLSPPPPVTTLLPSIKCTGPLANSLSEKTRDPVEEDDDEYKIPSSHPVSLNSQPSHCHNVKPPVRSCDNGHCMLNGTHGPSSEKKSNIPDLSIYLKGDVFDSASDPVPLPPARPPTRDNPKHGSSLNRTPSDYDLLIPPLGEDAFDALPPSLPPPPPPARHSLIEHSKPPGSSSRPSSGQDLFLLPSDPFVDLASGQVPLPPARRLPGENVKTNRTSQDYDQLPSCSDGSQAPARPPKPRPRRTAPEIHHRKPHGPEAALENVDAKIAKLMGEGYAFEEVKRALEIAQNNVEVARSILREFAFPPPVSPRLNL
Summary of the method: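 Binding IC50 from four-parameter fit of HTRF signal loss, normalised to DMSO (0%) and no-protein (100%) wells. Biotinylated Cbl-b 0.4 nM was preincubated 60 min with compound (20-point 1:2 dilution) before 15 min with 150 nM BODIPY probe; Tb-streptavidin detection.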

[3] = Jurkat cells, CD3/CD28 T Cell Activator, IL-2 AlphaLISA

Structure (SMILES) | EC50 [1, 3] [nM] | IC50 [2] [nM] | EC50 ([1]; Jurkat) [nM]
COC(F)(F)CNCc1cc(C(=O)Nc2cc(-c3ccc(F)cc3-c3nncn3C)cc(C3CC3)n2)c(=O)n(C2CC2)c1 [Example 19, N-{6-cyclopropyl-4-[4-fluoro-2-(4-methyl-4H-1,2,4-triazol-3-yl)phenyl]-2-pyridyl}-1-cyclopropyl-5-[(2,2-difluoro-2-methoxyethylamino)methyl]-2-oxo-1,2-dihydronicotinamide] | 100 to 1000 | < 100 | –
CC(C)CNCc1cc(C(=O)Nc2cc(-c3c(F)cc(Cl)cc3C(=O)N3CC(F)(F)C3)cc(C3CC3)n2)c(=O)n(C2CC2)c1 [Example 144, N-(4-{4-chloro-2-[(3,3-difluoro-1-azetidinyl)carbonyl]-6-fluorophenyl}-6-cyclopropyl-2-pyridyl)-1-cyclopropyl-5-[(isobutylamino)methyl]-2-oxo-1,2-dihydronicotinamide] | – | < 100 | < 100
C[C@H]1CCCN(Cc2cc(C(=O)Nc3cc(-c4ccc(F)cc4-c4nncn4C)cc(C4CC4)n3)c(=O)n(C3CC3)c2)C1 [Example 2, 1-Cyclopropyl-N-[6-cyclopropyl-4-[4-fluoro-2-(4-methyl-1,2,4-triazol-3-yl)phenyl]pyridin-2-yl]-5-[[(3S)-3-methylpiperidin-1-yl]methyl]-2-oxopyridine-3-carboxamide] | < 100 | < 100 | –
Cn1cnnc1-c1cc(F)ccc1-c1cc(NC(=O)c2cc(CNCCC(F)(F)F)cn(C3CC3)c2=O)nc(C2CC2)c1 [Example 15, N-{6-cyclopropyl-4-[4-fluoro-2-(4-methyl-4H-1,2,4-triazol-3-yl)phenyl]-2-pyridyl}-1-cyclopropyl-2-oxo-5-[(3,3,3-trifluoropropylamino)methyl]-1,2-dihydronicotinamide] | < 100 | < 100 | –

Continued, in another order:

EC50 [1, 3] [nM] | IC50 [2] [nM] | Structure (SMILES) | EC50 ([1]; Jurkat) [nM]
100 to 1000 | < 100 | COCCNCc1cc(C(=O)Nc2cc(-c3ccc(F)cc3C(=O)N3CC(F)(F)C3)cc(C3CC3)c2)c(=O)n(C2CC2)c1 [Example 69, N-{5-cyclopropyl-2′-[(3,3-difluoro-1-azetidinyl)carbonyl]-4′-fluoro-3-biphenylyl}-1-cyclopropyl-5-[(2-methoxyethylamino)methyl]-2-oxo-1,2-dihydronicotinamide] | –
1000 to 5000 | 100 to 1000 | Cc1ccnnc1-c1cc(F)ccc1-c1cc(NC(=O)c2cc(CN3CCO[C@H](C)C3)cn(C3CC3)c2=O)nc(C2CC2)c1 [Example 74, 1-cyclopropyl-N-[6-cyclopropyl-4-[4-fluoro-2-(4-methylpyridazin-3-yl)phenyl]pyridin-2-yl]-5-[[(2R)-2-methylmorpholin-4-yl]methyl]-2-oxopyridine-3-carboxamide] | –
100 to 1000 | < 100 | COCCNCc1cc(C(=O)Nc2cc(-c3ccc(C#N)cc3-c3nc(C#N)cn3C)cc(C3CC3)n2)c(=O)n(CC2CC2)c1 [Example 63, N-{4-[4-cyano-2-(4-cyano-1-methyl-2-imidazolyl)phenyl]-6-cyclopropyl-2-pyridyl}-1-(cyclopropylmethyl)-5-[(2-methoxyethylamino)methyl]-2-oxo-1,2-dihydronicotinamide] | –
< 100 | < 100 | C[C@H]1CCCN(Cc2cc(C(=O)Nc3cc(-c4ccc(F)cc4-c4nncn4C)cc(C4CC4)n3)c(=O)n(CC(F)(F)F)c2)C1 [Example 58, N-[6-cyclopropyl-4-[4-fluoro-2-(4-methyl-1,2,4-triazol-3-yl)phenyl]pyridin-2-yl]-5-[[(3S)-3-methylpiperidin-1-yl]methyl]-2-oxo-1-(2,2,2-trifluoroethyl)pyridine-3-carboxamide] | –
1000 to 5000 | 100 to 1000 | C[C@H]1CCCN(Cc2cc(C(=O)Nc3cc(-c4ccc(C(N)=O)cc4-c4nccn4C)cc(C4CC4)n3)c(=O)n(C3CC3)c2)C1 [Example 44, N-{4-[4-carbamoyl-2-(1-methyl-2-imidazolyl)phenyl]-6-cyclopropyl-2-pyridyl}-5-{[(S)-3-methyl-1-piperidyl]methyl}-1-cyclopropyl-2-oxo-1,2-dihydronicotinamide] | –
